{"source": "paper PMC9412875", "about": "“^64Cu-DOTHA2-PSMA, a Novel PSMA PET Radiotracer for Prostate Cancer with a Long Imaging Time Window” (Pharmaceuticals, 2022)", "key": {"LNCaP tumor": {"system": "LNCaP tumor", "assay": "Tumor-bearing mice biodistribution after PET", "type": "in vivo, NRG mice", "conditions": "24 h p.i.", "description": "(§1) Balb/c mice (n = 30) were injected with a bolus of ^64Cu-DOTHA2-PSMA by the tail vein (in 0.3 mL of saline: 3 MBq for 1 h, 2 h, and 4 h p.i., 7.5 MBq for 24 h p.i. and 21 MBq for 48 h p.i.). Injected activity had to be increased for later time points to ensure reliable detection and reliability in organs with a low uptake, e.g., the brain. At all timepoints, blood was collected using a heparin-coated syringe by femoral vein puncture and mice were then euthanized and dissected. Harvested tissues were rinsed, blotted dry, and then weighted and counted in gamma counter. The results are reported as the %IA per gram of tissue. The biodistribution results were compared with the ^68Ga-PSMA-617 results obtained by our team at 1 h and 2 h p.i.\nPET imaging of NRG mice and supplemental tumor-bearing mice were biodistributed 24 h p.i. as described for balb/c mice."}, "LNCaP cells [1]": {"system": "LNCaP cells", "assay": "Cellular efflux assay", "type": "cell-based, human", "description": "(§2) Here, 12-well polylysine-coated Cellbind plates were seeded with 150 × 10^3 LNCaP cells with 1.75 mL of cell media. At 70–100% confluence (3 days of growth), the cell medium was changed and 37 kBq of ^64Cu-DOTHA2-PSMA in 1 mL of cell medium was added to each well of group 1 and 160 kBq to each of group 2.\nFor efflux assays, after adding ^64Cu-DOTHA2-PSMA, cells were incubated for 60 min for the time points 15 min to 4 h (group 1) and incubated for 4 h for the time points 4 h to 48 h (group 2). After incubation, the medium was removed, cells were washed with 1 mL of cold PBS, 1 mL of cell media was added and, similarly to uptake and internalization, cells were again incubated in nonradioactive media for 0, 15, 30, 45, 60 min, 2 h, 4 h (group 1) and 4 h, 8 h, 24 h, 32 h or 48 h (group 2) (3 wells per time point). After respective incubation times per well, the medium was removed, and cells were washed with 1 mL of cold PBS, then removed from the well with 1 mL of trypsin to measure the residual radioactivity by gamma counter. The results of residual activity were expressed as percentage of the 1 h (Group 1) or 4 h (Group 2) uptake activity (0 min of efflux time-point) as a function of time for 10^6 cells.\n(§3) All the assays were performed at least 3 times, each with different ^64Cu-DOTHA2-PSMA production and cell passage. Cells were counted in 3 wells for each protocol (uptake, internalization, and efflux) on day 1 and day 3 of each experiment and an average for cells numbers at day 2."}, "[2]": {"assay": "Balb/c mice biodistribution", "type": "in vivo", "description": "^64Cu-DOTHA2-PSMA biodistribution was assessed in balb/c mice (n = 30) by harvesting blood and organs at 1 h, 2 h, 4 h, 24 h, and 48 h p.i. to measure tissue radioactivity and weight. Results were reported as the %IA/g of tissue and compared with the radiotracer used for clinical imaging in our facility, ^68Ga-PSMA-617.\nas §1"}, "[3]": {"assay": "Lipophilicity (log D), octanol/PBS partition", "type": "physicochemical", "conditions": "octanol / PBS pH 7.4, triplicate", "description": "For log D measurements, 8 MBq of ^64Cu-DOTHA2-PSMA was added to a pre-saturated mixture of phosphate-buffered saline pH 7.4 (500 µL) and octanol (500 µL). Samples were shaken for 30 min at room temperature, centrifuged at 7000 rpm for 5 min, and 100 µL of each phase was counted using a Packard Cobra gamma counter. Experiments were performed in triplicate and the value was presented as log Dmean ± SD, where D was calculated as D = (Average of CPM in octanol / CPM in PBS)."}, "LNCaP cells [4]": {"system": "LNCaP cells", "assay": "Cellular uptake and internalization assays", "type": "cell-based, human", "conditions": "for cellular uptake: n = 9", "description": "as §2\nUptake and internalization assay cells were incubated for 15, 30, 45, 60 min, 2 h, 3 h, and 4 h in group 1 or 4 h, 8 h, 12 h, 24 h, 36 h, and 48 h in group 2 (3 wells per time point in all groups). Repetition of the 4 h time point was used to ensure reproducibility. After incubation, the medium was removed, and cells were washed with 1 mL of cold PBS. For the uptake assays, cells were directly treated with 1 mL of trypsin to be collected and their activity was assayed (HIDEX AMG Gamma Counter 425-601). For internalization assays, cells were incubated with 1 mL of acidic glycine (50 mM, pH = 2,8) for 5 min to remove membrane-bound ^64Cu-DOTHA2-PSMA, washed with 3 mL of cold PBS, and collected using 1 mL of trypsin to be measured in the gamma-counter. Uptake and internalization results were expressed as the percentage of activity injected in the well (IA) in functions of time, normalized to 10^6 cells.\nas §3"}, "[5]": {"conditions": "Blocked (n=4), co-injection of natCu-DOTHA2-PSMA"}}, "data": [{"compound": "CN([O-])C(=O)CN1CCN(CC(=O)NCC2CCC(C(=O)NC(Cc3ccc4ccccc4c3)C(=O)NCCCCC(NC(=O)NC(CCC(=O)O)C(=O)O)C(=O)O)CC2)CCN(CC(=O)N(C)[O-])CCN(CC(=O)N(C)O)CC1.[64Cu+2]", "note": "(stereo not shown) [^64Cu-DOTHA2-PSMA]", "values": [{"measurement": "Adrenals uptake", "setting": "LNCaP tumor; [5]", "value": 9.02, "unit": "%IA/g"}, {"measurement": "Blood uptake", "setting": "LNCaP tumor; [5]", "value": 1.91, "unit": "%IA/g"}, {"measurement": "Bone uptake", "setting": "LNCaP tumor; [5]", "value": 0.91, "unit": "%IA/g"}, {"measurement": "Brain uptake", "setting": "LNCaP tumor; [5]", "value": 0.38, "unit": "%IA/g"}, {"measurement": "Fat uptake", "setting": "LNCaP tumor; [5]", "value": 0.26, "unit": "%IA/g"}, {"measurement": "Heart uptake", "setting": "LNCaP tumor; [5]", "value": 3.00, "unit": "%IA/g"}, {"measurement": "Intestin uptake", "setting": "LNCaP tumor; [5]", "value": 8.53, "unit": "%IA/g"}, {"measurement": "Kidneys uptake", "setting": "LNCaP tumor; [5]", "value": 6.86, "unit": "%IA/g"}, {"measurement": "LNCaP tumor uptake", "setting": "LNCaP tumor; [5]", "value": 7.44, "unit": "%IA/g"}, {"measurement": "Lungs uptake", "setting": "LNCaP tumor; [5]", "value": 5.99, "unit": "%IA/g"}, {"measurement": "Muscles uptake", "setting": "LNCaP tumor; [5]", "value": 0.47, "unit": "%IA/g"}, {"measurement": "Pancreas uptake", "setting": "LNCaP tumor; [5]", "value": 2.09, "unit": "%IA/g"}, {"measurement": "Plasma uptake", "setting": "LNCaP tumor; [5]", "value": 2.54, "unit": "%IA/g"}, {"measurement": "Salivary gl. uptake", "setting": "LNCaP tumor; [5]", "value": 1.84, "unit": "%IA/g"}, {"measurement": "Seminal gl. uptake", "setting": "LNCaP tumor; [5]", "value": 0.59, "unit": "%IA/g"}, {"measurement": "Skin uptake", "setting": "LNCaP tumor; [5]", "value": 0.50, "unit": "%IA/g"}, {"measurement": "Spleen uptake", "setting": "LNCaP tumor; [5]", "value": 6.99, "unit": "%IA/g"}, {"measurement": "Stomach uptake", "setting": "LNCaP tumor; [5]", "value": 5.55, "unit": "%IA/g"}, {"measurement": "Tail uptake", "setting": "LNCaP tumor; [5]", "value": 1.36, "unit": "%IA/g"}, {"measurement": "Testis uptake", "setting": "LNCaP tumor; [5]", "value": 1.03, "unit": "%IA/g"}, {"measurement": "Thyroid uptake", "setting": "LNCaP tumor; [5]", "value": 1.33, "unit": "%IA/g"}, {"measurement": "liver uptake", "setting": "LNCaP tumor; [5]", "value": 15.15, "unit": "%IA/g"}, {"measurement": "Adrenals uptake", "setting": "LNCaP tumor; Non-blocked (n=11)", "value": 4.70, "unit": "%IA/g"}, {"measurement": "Blood uptake", "setting": "LNCaP tumor; Non-blocked (n=11)", "value": 3.46, "unit": "%IA/g"}, {"measurement": "Bone uptake", "setting": "LNCaP tumor; Non-blocked (n=11)", "value": 2.38, "unit": "%IA/g"}, {"measurement": "Brain uptake", "setting": "LNCaP tumor; Non-blocked (n=11)", "value": 0.75, "unit": "%IA/g"}, {"measurement": "Fat uptake", "setting": "LNCaP tumor; Non-blocked (n=11)", "value": 0.63, "unit": "%IA/g"}, {"measurement": "Heart uptake", "setting": "LNCaP tumor; Non-blocked (n=11)", "value": 5.20, "unit": "%IA/g"}, {"measurement": "Intestin uptake", "setting": "LNCaP tumor; Non-blocked (n=11)", "value": 15.69, "unit": "%IA/g"}, {"measurement": "Kidneys uptake", "setting": "LNCaP tumor; Non-blocked (n=11)", "value": 13.24, "unit": "%IA/g"}, {"measurement": "LNCaP tumor uptake", "setting": "LNCaP tumor; Non-blocked (n=11)", "value": 17.33, "unit": "%IA/g"}, {"measurement": "Lungs uptake", "setting": "LNCaP tumor; Non-blocked (n=11)", "value": 14.30, "unit": "%IA/g"}, {"measurement": "Muscles uptake", "setting": "LNCaP tumor; Non-blocked (n=11)", "value": 1.10, "unit": "%IA/g"}, {"measurement": "Pancreas uptake", "setting": "LNCaP tumor; Non-blocked (n=11)", "value": 2.80, "unit": "%IA/g"}, {"measurement": "Plasma uptake", "setting": "LNCaP tumor; Non-blocked (n=11)", "value": 4.52, "unit": "%IA/g"}, {"measurement": "Salivary gl. uptake", "setting": "LNCaP tumor; Non-blocked (n=11)", "value": 4.18, "unit": "%IA/g"}, {"measurement": "Seminal gl. uptake", "setting": "LNCaP tumor; Non-blocked (n=11)", "value": 1.13, "unit": "%IA/g"}, {"measurement": "Skin uptake", "setting": "LNCaP tumor; Non-blocked (n=11)", "value": 1.07, "unit": "%IA/g"}, {"measurement": "Spleen uptake", "setting": "LNCaP tumor; Non-blocked (n=11)", "value": 10.10, "unit": "%IA/g"}, {"measurement": "Stomach uptake", "setting": "LNCaP tumor; Non-blocked (n=11)", "value": 9.17, "unit": "%IA/g"}, {"measurement": "Tail uptake", "setting": "LNCaP tumor; Non-blocked (n=11)", "value": 2.37, "unit": "%IA/g"}, {"measurement": "Testis uptake", "setting": "LNCaP tumor; Non-blocked (n=11)", "value": 1.96, "unit": "%IA/g"}, {"measurement": "Thyroid uptake", "setting": "LNCaP tumor; Non-blocked (n=11)", "value": 2.57, "unit": "%IA/g"}, {"measurement": "liver uptake", "setting": "LNCaP tumor; Non-blocked (n=11)", "value": 28.54, "unit": "%IA/g"}, {"measurement": "Retained activity normalized to time 0", "setting": "LNCaP cells [1]; 1h incubation, efflux time 0.25 h", "value": 100.93, "unit": "%"}, {"measurement": "Retained activity normalized to time 0", "setting": "LNCaP cells [1]; 1h incubation, efflux time 0.50 h", "value": 105.51, "unit": "%"}, {"measurement": "Retained activity normalized to time 0", "setting": "LNCaP cells [1]; 1h incubation, efflux time 0.75 h", "value": 94.38, "unit": "%"}, {"measurement": "Retained activity normalized to time 0", "setting": "LNCaP cells [1]; 1h incubation, efflux time 1 h", "value": 77.52, "unit": "%"}, {"measurement": "Retained activity normalized to time 0", "setting": "LNCaP cells [1]; 1h incubation, efflux time 2 h", "value": 80.95, "unit": "%"}, {"measurement": "Retained activity normalized to time 0", "setting": "LNCaP cells [1]; 1h incubation, efflux time 4 h", "value": 64.04, "unit": "%"}, {"measurement": "Retained activity normalized to time 0", "setting": "LNCaP cells [1]; 4h incubation, efflux time 4 h", "value": 66.23, "unit": "%"}, {"measurement": "Retained activity normalized to time 0", "setting": "LNCaP cells [1]; 4h incubation, efflux time 8 h", "value": 51.88, "unit": "%"}, {"measurement": "Retained activity normalized to time 0", "setting": "LNCaP cells [1]; 4h incubation, efflux time 24 h", "value": 35.10, "unit": "%"}, {"measurement": "Retained activity normalized to time 0", "setting": "LNCaP cells [1]; 4h incubation, efflux time 32 h", "value": 34.27, "unit": "%"}, {"measurement": "Retained activity normalized to time 0", "setting": "LNCaP cells [1]; 4h incubation, efflux time 48 h", "value": 48.61, "unit": "%"}, {"measurement": "kidney uptake difference to 68Ga-PSMA-617 (lower)", "setting": "[2]; 2 h p.i.", "value": 23.3, "unit": "%"}, {"measurement": "liver uptake", "setting": "[2]; 2 h p.i.", "value": "29.9 ± 5.0", "unit": "% IA/g"}, {"measurement": "liver uptake (peak)", "setting": "[2]; 4 h p.i.", "value": "30.2 ± 4.2", "unit": "% IA/g"}, {"measurement": "uptake in the kidneys (highest over time points)", "setting": "[2]; up to 48 h p.i.", "value": "at most 15.8 ± 7.0 % IA/g"}, {"measurement": "log D", "setting": "[3]", "value": "-0.96 ± 0.61"}, {"measurement": "cellular uptake", "setting": "LNCaP cells [4]; 30 min", "value": "22.0 ± 8.8", "unit": "% IA/10^6 cells"}, {"measurement": "internalization", "setting": "LNCaP cells [4]; 2 h", "value": "12.2 ± 6.7", "unit": "% IA/10^6 cells"}, {"measurement": "internalization", "setting": "LNCaP cells [4]; 48 h", "value": "34.1 ± 4.9", "unit": "% IA/10^6 cells"}, {"measurement": "cellular uptake", "setting": "LNCaP cells [4]; 48 h", "value": "34.5 ± 13.6", "unit": "% IA/10^6 cells"}]}]}
